Measured values as given in the supplement of paper PMC10331698.
± gives the standard deviation of the averaged measurements.

Assays:
Assay in all cases: level (log10 ratio to DMSO vehicle control); higher = higher biomarker level / cell amount than vehicle control
[1] = compound: OCC(F)(F)C(F)(F)C(F)(F)C(F)(F)C(F)(F)C(F)(F)CO [1H,1H,8H,8H-Perfluorooctane-1,8-diol] (in DMSO)
Procedure: (§1)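 BioMAP Diversity Plus panel of 12 human primary cell co-culture systems (3C, 4H, LPS, SAg, BT, BF4T, BE3C, CASM3C, HDF3CGF, KF3CT, MyoF, Mphg). Compounds were added 1 h before stimulation and left for 24 h (MyoF 48 h; BT 72 h for soluble read-outs or 6 d for IgG). Biomarkers were read by ELISA, cytotoxicity by SRB, PBMC viability and proliferation by Alamar Blue. Each well value was divided by the mean of 8 DMSO control wells on the same plate and log10 transformed; duplicate blinded samples were tested at 4 concentrations.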

[2] = compound: CCOC(=O)CC(=O)C(F)(F)C(F)(F)F [Ethyl pentafluoropropionyl acetate] (in DMSO)
Procedure: as §1

Perfluoroundecanoic acid = compound: O=C(O)C(F)(F)C(F)(F)C(F)(F)C(F)(F)C(F)(F)C(F)(F)C(F)(F)C(F)(F)C(F)(F)C(F)(F)F [Perfluoroundecanoic acid] (in DMSO); conditions: 6700 nM
Procedure: as §1

[3] = compound: O=S(=O)(O)CCC(F)(F)C(F)(F)C(F)(F)C(F)(F)C(F)(F)C(F)(F)C(F)(F)C(F)(F)F [8:2 Fluorotelomer sulfonic acid] (in DMSO)
Procedure: as §1

[4] = compound: OCC(F)(F)OC(F)(F)C(F)(F)OC(F)(F)C(F)(F)OC(F)(F)CO [1H,1H,11H,11H-Perfluorotetraethylene glycol] (in DMSO)
Procedure: as §1

Perfluorononanoic acid = compound: O=C(O)C(F)(F)C(F)(F)C(F)(F)C(F)(F)C(F)(F)C(F)(F)C(F)(F)C(F)(F)F [Perfluorononanoic acid] (in DMSO)
Procedure: as §1

[5] = compound: CO[Si](C)(CCC(F)(F)C(F)(F)C(F)(F)C(F)(F)C(F)(F)C(F)(F)F)OC [Dimethoxymethyl((perfluorohexyl)ethyl)silane] (in DMSO)
Procedure: as §1

[6] = compound: O=C(O)CCC(F)(C(F)(F)F)C(F)(F)F [4,4-bis(Trifluoromethyl)-4-fluoropropanoic acid] (in DMSO)
Procedure: as §1

Test System	level (log10) ([1]; 6700 nM)	level (log10) ([1]; 20000 nM)	level (log10) ([1]; 60000 nM)	level (log10) ([2]; 6700 nM)	level (log10) ([2]; 20000 nM)	level (log10) ([2]; 60000 nM)	level (log10) (Perfluoroundecanoic acid)	level (log10) ([3]; 6700 nM)	level (log10) ([3]; 20000 nM)	level (log10) ([3]; 60000 nM)	level (log10) ([4]; 6700 nM)	level (log10) ([4]; 20000 nM)	level (log10) ([4]; 60000 nM)	level (log10) (Perfluorononanoic acid; 6700 nM)	level (log10) (Perfluorononanoic acid; 20000 nM)	level (log10) ([5]; 6700 nM)	level (log10) ([5]; 20000 nM)	level (log10) ([6]; 6700 nM)	level (log10) ([6]; 20000 nM)	level (log10) ([6]; 60000 nM)
BT:sIL-17A	-0.0535 ± 0.14	-0.25 ± 0.073	-0.393 ± 0.085	-0.088 ± 0.0014	-0.0195 ± 0.032	-0.0685 ± 0.081	-0.06 ± 0.25	-0.152 ± 0.057	-0.012 ± 0.013	-0.0805 ± 0.16	-0.075 ± 0.069	-0.105 ± 0.032	-0.337 ± 0.18	-0.05 ± 0.0085	0.0015 ± 0.022	-0.0265 ± 0.029	-0.025 ± 0.17	-0.037 ± 0.064	0.087 ± 0.054	-0.019 ± 0.19
BT:sIL-17F	-0.0015 ± 0.03	-0.158 ± 0.12	-0.208 ± 0.0092	0.0355 ± 0.0092	0.0155 ± 0.0035	-0.012 ± 0.093	-0.0225 ± 0.056	-0.0295 ± 0.091	0.053 ± 0.0071	0.018	-0.0185 ± 0.015	-0.176	-0.396 ± 0.044	-0.0305 ± 0.0064	0.002 ± 0.15	0.074 ± 0.0014	0.102 ± 0.064	0.064 ± 0.13	0.0385 ± 0.087	-0.005 ± 0.0085
BT:sTNF-alpha	-0.057 ± 0.045	-0.0705 ± 0.036	-0.097 ± 0.18	-0.124 ± 0.17	0.017 ± 0.072	-0.0495 ± 0.07	0.06 ± 0.02	0.006 ± 0.095	0 ± 0.0071	0.009 ± 0.034	0.0045 ± 0.066	-0.033 ± 0.09	-0.234 ± 0.044	-0.002 ± 0.038	0.0115 ± 0.073	-0.0935 ± 0.15	0.094 ± 0.11	-0.0135 ± 0.22	-0.051 ± 0.12	-0.031 ± 0.16
LPS:CCL2/MCP-1	-0.004 ± 0.018	-0.0115 ± 0.018	-0.0135 ± 0.036	-0.025 ± 0.0085	-0.0345 ± 0.018	-0.0125 ± 0.018	0.0015 ± 0.0078	0.0135 ± 0.023	0.016 ± 0.0028	-0.055 ± 0.045	-0.0125 ± 0.0035	-0.033 ± 0.028	-0.0405 ± 0.025	-0.0035 ± 0.033	0.0165 ± 0.016	-0.0155 ± 0.028	0.013 ± 0.048	0.024 ± 0.037	0 ± 0.014	0.0155 ± 0.07
LPS:CD40	-0.031 ± 0.0057	-0.0375 ± 0.032	-0.0555 ± 0.049	0.015 ± 0.0014	-0.0245 ± 0.015	-0.0335 ± 0.0064	-0.019 ± 0.05	0.037 ± 0.016	-0.0195 ± 0.021	-0.128 ± 0.024	-0.0565 ± 0.026	-0.058 ± 0.054	-0.126 ± 0.035	-0.0305 ± 0.019	-0.039 ± 0.011	-0.0085 ± 0.029	-0.009 ± 0.025	0.005 ± 0.027	-0.0115 ± 0.021	-0.0385 ± 0.0035
LPS:CD62E/E-Selectin	-0.0495 ± 0.013	-0.0295 ± 0.022	-0.044 ± 0.024	0.015 ± 0.0085	0.0055 ± 0.018	0.0095 ± 0.039	-0.014 ± 0.016	0.0235 ± 0.06	0.033 ± 0.02	0.082 ± 0.025	0.004 ± 0.025	-0.012 ± 0.016	-0.0165 ± 0.016	-0.009 ± 0.013	-0.01 ± 0.0085	0.0135 ± 0.011	0.01 ± 0.0099	0.0115 ± 0.023	0.0055 ± 0.013	-0.007 ± 0.016
LPS:CD69	0.014 ± 0.0099	-0.006 ± 0.045	-0.0125 ± 0.028	-0.02 ± 0.013	-0.048 ± 0.02	-0.021 ± 0.072	-0.0585 ± 0.05	-0.0455 ± 0.06	-0.035 ± 0.071	-0.0835 ± 0.049	-0.0115 ± 0.025	-0.072 ± 0.035	-0.095 ± 0.011	-0.0275 ± 0.022	-0.038 ± 0.013	-0.046 ± 0.013	-0.0265 ± 0.0092	-0.0145 ± 0.077	-0.0265 ± 0.015	-0.045 ± 0.025
